# Article PMC12564639, “Discovery of a Novel Anticoagulant Cystine Knot Peptide from Spider Venom Gland Transcriptome” (International Journal of Molecular Sciences, 2025)
# Peptide text beside a SMILES is read from it.
# Columns and labels:
# [1] = tested on: FeCl3-induced carotid artery thrombosis in mice; assay: FeCl3-induced carotid artery thrombosis model; assay type: in vivo, C57BL/6J mice; details: for blood flow reduction, carotid artery: 10 min before FeCl3, n = 6
# Description: The C57BL/6J mice (male, 6–8 weeks old) were purchased from Beijing Vital River Laboratory Animal Technology Co., Ltd. (Beijing, China). All animal studies were performed under the approval of the Ethics Committee of the Laboratory Animal Welfare of the Kunming Institute of Zoology, Chinese Academy of Sciences (IACUC-RE-2025-03-010).
# Male C57BL/6J mice (6–8 weeks old, n = 6 per group) were randomly assigned to groups receiving intravenous injections of PBS (vehicle control), GC38 (2 or 4 mg/kg in PBS), and heparin sodium (1000 U/kg), respectively. Ten minutes post-injection, mice were anesthetized with 2% isoflurane inhalation. The right carotid artery was surgically exposed, and endothelial injury was induced by applying a 1 × 2 mm filter paper saturated with 10% (w/v) FeCl3 solution for 30 s. Real-time blood flow was monitored using a real-time laser speckle perfusion (LSP) imaging system (RWD Life Science, Shenzhen, China) with SIM BFI software (SIM BFI HR Pro, Simopto, Beijing, China). Thrombosis progression and vessel occlusion were evaluated using real-time ultrasound imaging of the region of interest at baseline (before injury), 5, and 10 min (post-injury). The perfusion unit was recorded to quantify the blood flow. Vessel occlusion was defined as a sustained reduction in perfusion units to ≤10% of baseline for at least 3 min. Data are presented as mean ± SEM.
# [2] = tested on: human plasma, intrinsic clotting cascade; assay: Activated partial thromboplastin time (APTT); assay type: biochemical; details: GC38 10 μM; human plasma 20 μL, pre-incubation 5 min at 37 °C, APTT reagent 5 min, CaCl2; scattered light; mean, n = 3
# Description: APTT and PT were measured with commercially available kits according to the manufacturer’s instructions. For APTT determination, 20 μL human plasma was pre-incubated with GC38 (0.1, 1, and 10 µM) at 37 °C for 5 min, and then 30 μL APTT reagent was added and incubated for another 5 min. Subsequently, 40 μL pre-warmed CaCl2 (37 °C) was added to initiate the intrinsic clotting cascade. The intensity of the scattered light was monitored until the signals reached saturation. For PT determination, 20 μL human plasma was pre-incubated with GC38 (0.1, 1, and 10 µM) at 37 °C for 5 min. Then, 75 μL PT reagent was added to initiate the extrinsic clotting cascade. The intensity of the scattered light was monitored until the signals reached saturation. The coagulation time (APTT or PT) was defined as the time point at which the scattered light signal reached the midpoint between the baseline and maximum amplitude. All concentrations were tested in triplicate. Results are shown as mean values, and the time at maximum reactive velocity was also reported.
compound,measurement,setting,value
"CSCC[C@@H]1NC(=O)[C@H](CC(N)=O)NC(=O)CNC(=O)CNC(=O)[C@H](Cc2c[nH]cn2)NC(=O)[C@H](CCCNC(=N)N)NC(=O)CNC(=O)[C@@H]2CSSC[C@@H]3NC(=O)[C@H](CCCNC(=N)N)NC(=O)[C@H](C)NC(=O)CNC(=O)[C@H](CCCCN)NC(=O)CNC(=O)[C@H](CO)NC(=O)[C@@H](NC(=O)CN)CSSC[C@H](NC(=O)[C@H](CSSC[C@@H](C(=O)N[C@@H](CCC(=O)O)C(=O)N[C@@H](Cc4c[nH]c5ccccc45)C(=O)N[C@@H](CC(N)=O)C(=O)N[C@@H](Cc4c[nH]c5ccccc45)C(=O)N[C@@H](CCCCN)C(=O)N[C@H](C(=O)NCC(=O)O)[C@@H](C)O)NC(=O)[C@H](CO)NC(=O)[C@H](CCCCN)NC(=O)[C@H](Cc4ccc(O)cc4)NC1=O)NC(=O)[C@H](CCCCN)NC(=O)[C@H](CO)NC(=O)[C@@H]1CCCN1C(=O)[C@H](C)NC3=O)C(=O)N[C@@H](CO)C(=O)NCC(=O)N[C@@H](CC(C)C)C(=O)N[C@@H](CO)C(=O)N2 [GC38] (HELM PEPTIDE1{G.C.S.G.K.G.A.R.C.A.P.S.K.C.C.S.G.L.S.C.G.R.H.G.G.N.M.Y.K.S.C.E.W.N.W.K.T.G}$PEPTIDE1,PEPTIDE1,2:R3-15:R3|PEPTIDE1,PEPTIDE1,9:R3-20:R3|PEPTIDE1,PEPTIDE1,14:R3-31:R3$$$V2.0)",FeCl3-induced vascular occlusion,"[1]; 2 and 4 mg/kg i.v., Doppler flowmetry / laser speckle perfusion",alleviated FeCl3-induced vascular occlusion in mice
same,"blood flow reduction, carotid artery","[1]; GC38 2 mg/kg i.v., 5 min after 10% FeCl3",20.6%
same,"blood flow reduction, carotid artery","[1]; GC38 2 mg/kg i.v., 10 min after 10% FeCl3",44.0%
same,"blood flow reduction, carotid artery","[1]; GC38 4 mg/kg i.v., 5 min after 10% FeCl3",11.8%
same,"blood flow reduction, carotid artery","[1]; GC38 4 mg/kg i.v., 10 min after 10% FeCl3",29.4%
same,APTT extension versus control,[2],1.4 fold
